Reference: ChEMBL document CHEMBL3864156, “Inhibition of plasma lipid oxidation induced by peroxyl radicals, peroxynitrite, hypochlorite, 15-lipoxygenase, and singlet oxygen by clinical drugs” (Bioorg Med Chem Lett, 2016)
Active and inactive are the calls of the source. No cut-off for these calls is given here.

How the values were obtained:
[1] = Antioxidant activity assessed as inhibition of Meo-AMVN-derived peroxyl radicals-induced fucoxanthin consumption at 50 uM; format: functional
Mus musculus [2] = species on record: Mus musculus; assay: Antioxidant activity in 10% C57BL/6J mouse plasma assessed as inhibition of AAPH-derived peroxyl radicals-induced pyranine consumption at 50 uM; format: functional, cell-free
Mus musculus [3] = species on record: Mus musculus; assay: Antioxidant activity in 10% C57BL/6J mouse plasma assessed as inhibition of NaOCl-induced lipid oxidation at 30 uM by DPPP-based fluorescence assay; format: functional, cell-free
[4] = 1-octanol-water partition coefficient, log P of the compound; format: physicochemical
[5] = Plasma concentration in paediatric patients with congestive heart failure; format: ADME; conditions: human
[6] = Plasma concentration in Sprague-Dawley rat at 1 mg/kg bolus dose with continuous infusion of 1 mg/kg per hour measured for 24 hrs; format: ADME, organism-based; conditions: iv
Mus musculus [7] = species on record: Mus musculus; assay: Antioxidant activity in 10% C57BL/6J mouse plasma assessed as inhibition of SIN-1-derived peroxynitrite-induced lipid oxidation by DPPP-based fluorescence assay; format: functional, cell-free
Mus musculus [8] = species on record: Mus musculus; assay: Antioxidant activity in 10% C57BL/6J mouse plasma assessed as inhibition of NaOCl-induced lipid oxidation by DPPP-based fluorescence assay; format: functional, cell-free
[9] = biological target: T1, Polyunsaturated fatty acid lipoxygenase ALOX15 (Mus musculus) (UniProt P39654); assay: (§1) Inhibition of 15-LOX-mediated lipid oxidation in 10% C57BL/6J mouse plasma; format: cell-free
T1 sequence (whole entry): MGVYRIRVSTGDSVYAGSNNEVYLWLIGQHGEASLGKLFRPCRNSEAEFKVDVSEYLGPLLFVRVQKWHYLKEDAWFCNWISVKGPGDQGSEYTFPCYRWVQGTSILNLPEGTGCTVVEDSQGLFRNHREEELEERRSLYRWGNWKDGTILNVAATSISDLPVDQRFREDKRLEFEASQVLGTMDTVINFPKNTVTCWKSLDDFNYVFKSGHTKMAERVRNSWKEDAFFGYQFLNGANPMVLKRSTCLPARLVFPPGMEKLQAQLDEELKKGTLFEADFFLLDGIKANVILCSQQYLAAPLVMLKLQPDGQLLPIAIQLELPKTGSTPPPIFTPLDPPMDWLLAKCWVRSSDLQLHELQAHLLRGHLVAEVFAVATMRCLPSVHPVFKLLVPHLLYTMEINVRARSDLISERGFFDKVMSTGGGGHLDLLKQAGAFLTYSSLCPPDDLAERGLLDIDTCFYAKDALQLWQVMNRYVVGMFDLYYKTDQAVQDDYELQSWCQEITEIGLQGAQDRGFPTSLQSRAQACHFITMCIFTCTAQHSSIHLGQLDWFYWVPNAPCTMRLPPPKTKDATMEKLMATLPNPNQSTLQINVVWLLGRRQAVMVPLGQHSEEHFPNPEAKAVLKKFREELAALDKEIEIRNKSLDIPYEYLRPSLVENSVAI

[10] = biological target: T2, Polyunsaturated fatty acid lipoxygenase ALOX15 (Mus musculus, UniProt P39654); assay: as §1; format: cell-free
T2 sequence (P39654 whole entry): T1 sequence (whole entry)

[11] = Plasma concentration in pediatric kawasaki patient at 10 to 25 mg/kg, po by HPLC method; format: ADME, organism-based; conditions: human, in vivo
[12] = Drug level in plasma (unknown origin); format: ADME, cell-free
[13] = Plasma concentration in human at 400 mg, po; format: ADME, cell-free
[14] = 1-octanol/water, read-out: logP

Cc1c(C)c2c(c(C)c1O)CC[C@@](C)(CCC[C@H](C)CCC[C@H](C)CCCC(C)C)O2
inhibition [1]: Active | inhibition (Mus musculus [2]): Active

COc1ccccc1OCCNCC(O)COc1cccc2[nH]c3ccccc3c12 (centres undefined) [CARVEDILOL]
inhibition (Mus musculus [3]): Dose-dependent effect | logP ([4]; octanol/water): 1.04 | concentration [5]: 0.5 µM

O=c1c2ccccc2[se]n1-c1ccccc1 [EBSELEN]
inhibition (Mus musculus [3]): Dose-dependent effect | logP [4, 14]: 1.25 | concentration at 24 h [6]: 5 to 20 µM

CC1=NN(c2ccccc2)C(=O)C1 [EDARAVONE]
inhibition (Mus musculus [2]): Active | inhibition (Mus musculus [7]): Dose-dependent effect | inhibition (Mus musculus [8]): Dose-dependent effect | inhibition [9]: Dose-dependent effect | IC50 [10]: 34 µM | logP [4, 14]: 0.86

CC(=O)CCCCn1c(=O)c2c(ncn2C)n(C)c1=O [PENTOXIFYLLINE]
inhibition (Mus musculus [3]): Dose-dependent effect | logP [4, 14]: 0.19 | concentration [11]: 5 to 20 µM

CC(C)(Sc1cc(C(C)(C)C)c(O)c(C(C)(C)C)c1)Sc1cc(C(C)(C)C)c(O)c(C(C)(C)C)c1 [PROBUCOL]
inhibition (Mus musculus [2]): Active | inhibition (Mus musculus [7]): Dose-dependent effect | inhibition (Mus musculus [8]): Dose-dependent effect | logP [4, 14]: 1.02 | concentration [12]: 30 µM

Cc1c(C)c2c(c(C)c1O)CCC(C)(COc1ccc(CC3SC(=O)NC3=O)cc1)O2 (centres undefined) [TROGLITAZONE]
inhibition [1]: Active | inhibition (Mus musculus [2]): Active | inhibition (Mus musculus [3]): Dose-dependent effect | inhibition [9]: Dose-dependent effect | IC50 [10]: 20 µM | logP ([4]; octanol/water): 0.95 | concentration [13]: 5 to 20 µM
